The results in this text go back to PubChem BioAssay AID254 (DTP/NCI, 2004).

This assay deals with L1210 leukemia iv in BDF1 mice, survival T/C. The assay is described as follows: NCI In Vivo Anticancer Drug Screen. Data for tumor model L1210 Leukemia (intravenous) in B6D2F1 (BDF1) mice. The settings on record: higher = longer survival. Here is the method: The antitumor activity of compounds was measured in mice bearing transplantable tumors. Survival or tumor size were measured and the results are expressed as the measurement made in the treated group (T) divided by the measurement made in the vehicle treated control group (C). The tumor model used in this assay is L1210 Leukemia (intravenous) in B6D2F1 (BDF1) mice

[1] abbreviates: endpoint: mean survival time, dose: 40.0 mg/kg/injection, schedule: Q01DX001 (oral), vehicle: other.
Setting [2] is: endpoint: mean survival time, dose: 48.0 mg/kg/injection, schedule: Q01DX001 (ip), vehicle: other.

Each structure is given as a SMILES string. Values joined by “and” are separate entries in the source; they are usually repeats but may differ in a detail not shown here. Equal values may be shown once. Inconclusive results and toxic doses are left out.

Take `CCCCc1ccc2nc(NC(=O)OC)[nH]c2c1`: the T/C runs as follows: (endpoint: median survival time, dose: 30.0 mg/kg/injection, schedule: Q04DX003 (iv), vehicle: saline) 100 % of control; (endpoint: median survival time, dose: 40.0 mg/kg/injection, schedule: Q04DX003 (iv), vehicle: saline) 110 % of control; (endpoint: median survival time, dose: 50.0 mg/kg/injection, schedule: Q04DX003 (iv), vehicle: saline) 113 % of control.

On to `COc1cccc2c1C(=O)c1c(O)c3c(c(O)c1C2=O)C[C@@](O)(C(=O)CO)C[C@@H]3OC1CC(N)C(O)C(C)O1` (stereo partly drawn), for which the T/C reads like this: (endpoint: mean survival time, dose: 0.6 mg/kg/injection, schedule: Q01DX005 (iv), vehicle: clinical formulation) 100 % of control; (endpoint: mean survival time, dose: 0.7 mg/kg/injection, schedule: Q01DX009 (ip), vehicle: clinical formulation) 97 % of control; (endpoint: mean survival time, dose: 0.7 mg/kg/injection, schedule: Q01DX009 (sc), vehicle: clinical formulation) 100 % of control; (endpoint: mean survival time, dose: 0.75 mg/kg/injection, schedule: Q01DX005 (iv), vehicle: saline) 90 % of control; (endpoint: mean survival time, dose: 0.9 mg/kg/injection, schedule: Q01DX005 (iv), vehicle: clinical formulation) 102 % of control; (endpoint: mean survival time, dose: 1.1 mg/kg/injection, schedule: Q01DX009 (ip), vehicle: clinical formulation) 100 % of control. The T/C (endpoint: mean survival time, dose: 1.1 mg/kg/injection, schedule: Q01DX009 (sc), vehicle: clinical formulation) is 100 % of control; the T/C (endpoint: mean survival time, dose: 1.4 mg/kg/injection, schedule: Q01DX005 (iv), vehicle: clinical formulation) was 101 % of control; the T/C (endpoint: mean survival time, dose: 1.5 mg/kg/injection, schedule: Q01DX005 (iv), vehicle: saline) was 101 % of control; the T/C (endpoint: mean survival time, dose: 1.7 mg/kg/injection, schedule: Q01DX009 (ip), vehicle: clinical formulation) is 102 % of control; the T/C (endpoint: mean survival time, dose: 1.7 mg/kg/injection, schedule: Q01DX009 (sc), vehicle: clinical formulation) was 105 % of control; the T/C (endpoint: mean survival time, dose: 2.4 mg/kg/injection, schedule: Q01DX005 (iv), vehicle: clinical formulation) was 108 % of control. The T/C runs as follows: (endpoint: mean survival time, dose: 2.4 mg/kg/injection, schedule: Q01DX009 (ip), vehicle: clinical formulation) 105 % of control; (endpoint: mean survival time, dose: 2.4 mg/kg/injection, schedule: Q01DX009 (sc), vehicle: clinical formulation) 112 % of control; (endpoint: mean survival time, dose: 2.5 mg/kg/injection, schedule: Q01DX005 (iv), vehicle: saline) 196 % of control; (endpoint: mean survival time, dose: 2.8 mg/kg/injection, schedule: Q01DX005 (iv), vehicle: clinical formulation) 108 % of control and 117 % of control; (endpoint: mean survival time, dose: 3.0 mg/kg/injection, schedule: Q01DX005 (iv), vehicle: saline) 114 % of control; (endpoint: mean survival time, dose: 3.6 mg/kg/injection, schedule: Q01DX009 (ip), vehicle: clinical formulation) 110 % of control. Moreover, the T/C runs as follows: (endpoint: mean survival time, dose: 3.6 mg/kg/injection, schedule: Q01DX009 (sc), vehicle: clinical formulation) 119 % of control; (endpoint: mean survival time, dose: 4.0 mg/kg/injection, schedule: Q01DX005 (iv), vehicle: saline) 86 % of control; (endpoint: mean survival time, dose: 4.2 mg/kg/injection, schedule: Q01DX005 (iv), vehicle: clinical formulation) 123 % of control; (endpoint: mean survival time, dose: 6.3 mg/kg/injection, schedule: Q01DX005 (iv), vehicle: clinical formulation) 124 % of control; (endpoint: mean survival time, dose: 7.0 mg/kg/injection, schedule: Q01DX005 (iv), vehicle: saline) 87 % of control; (endpoint: mean survival time, dose: 9.4 mg/kg/injection, schedule: Q01DX005 (iv), vehicle: clinical formulation) 115 % of control. Also, the T/C (endpoint: mean survival time, dose: 14.1 mg/kg/injection, schedule: Q01DX005 (iv), vehicle: clinical formulation) was 113 % of control.

On to `O=NN(CCF)C(=O)NC1CCS(=O)(=O)CC1`, for which the T/C reads like this: (endpoint: mean survival time, dose: 4.8 mg/kg/injection, schedule: Q01DX001 (oral), vehicle: other) 185 % of control and 225 % of control; (endpoint: mean survival time, dose: 6.0 mg/kg/injection, schedule: Q01DX001 (ip), vehicle: other) 190 % of control and 213 % of control; (endpoint: mean survival time, dose: 11.0 mg/kg/injection, schedule: Q01DX001 (oral), vehicle: other) 429 % of control and 504 % of control; (endpoint: mean survival time, dose: 12.0 mg/kg/injection, schedule: Q01DX001 (ip), vehicle: other) 365 % of control and 518 % of control; (endpoint: mean survival time, dose: 21.0 mg/kg/injection, schedule: Q01DX001 (oral), vehicle: other) 562 % of control and 817 % of control; (endpoint: mean survival time, dose: 24.0 mg/kg/injection, schedule: Q01DX001 (ip), vehicle: other) 620 % of control and 688 % of control. Also, the T/C is 436 % of control and 569 % of control under setting [1]; 517 % of control and 590 % of control under setting [2].

Regarding `O=NN(CCCl)C(=O)NCCCl`, the T/C was 152 % of control and 175 % of control (endpoint: mean survival time, dose: 7.0 mg/kg/injection, schedule: Q01DX001 (ip), vehicle: other); 197 % of control (endpoint: mean survival time, dose: 10.0 mg/kg/injection, schedule: Q01DX001 (ip), vehicle: other); 347 % of control (2×) and 204 % of control (endpoint: mean survival time, dose: 10.0 mg/kg/injection, schedule: Q01DX001 (ip), vehicle: saline + alcohol); 256 % of control (endpoint: mean survival time, dose: 10.0 mg/kg/injection, schedule: Q04DX004 (ip), vehicle: other); 719 % of control (endpoint: mean survival time, dose: 15.0 mg/kg/injection, schedule: Q04DX004 (ip), vehicle: other); 263 % of control (endpoint: mean survival time, dose: 18.0 mg/kg/injection, schedule: Q01DX001 (ip), vehicle: saline + alcohol). In addition, the T/C runs as follows: (endpoint: mean survival time, dose: 20.0 mg/kg/injection, schedule: Q04DX004 (ip), vehicle: other) 629 % of control; (endpoint: mean survival time, dose: 27.0 mg/kg/injection, schedule: Q01DX001 (ip), vehicle: other) 335 % of control and 283 % of control and 316 % of control; (endpoint: mean survival time, dose: 27.0 mg/kg/injection, schedule: Q01DX001 (ip), vehicle: saline + alcohol) 358 % of control; (endpoint: mean survival time, dose: 27.0 mg/kg/injection, schedule: Q01DX001 (oral), vehicle: other) 481 % of control and 523 % of control and 549 % of control; (endpoint: mean survival time, dose: 30.0 mg/kg/injection, schedule: Q01DX001 (ip), vehicle: other) 385 % of control; (endpoint: mean survival time, dose: 30.0 mg/kg/injection, schedule: Q04DX004 (ip), vehicle: other) 621 % of control. For the same compound, the T/C runs as follows: (endpoint: mean survival time, dose: 31.0 mg/kg/injection, schedule: Q01DX001 (ip), vehicle: other) 342 % of control and 248 % of control; (endpoint: mean survival time, dose: 39.0 mg/kg/injection, schedule: Q01DX001 (ip), vehicle: other) 373 % of control and 400 % of control and 473 % of control; under setting [1], 553 % of control and 633 % of control and 678 % of control; (endpoint: mean survival time, dose: 49.0 mg/kg/injection, schedule: Q01DX001 (ip), vehicle: other) 466 % of control and 478 % of control and 532 % of control; (endpoint: mean survival time, dose: 60.0 mg/kg/injection, schedule: Q01DX001 (oral), vehicle: other) 434 % of control and 471 % of control and 625 % of control; (endpoint: mean survival time, dose: 62.0 mg/kg/injection, schedule: Q01DX001 (ip), vehicle: other) 120 % of control and 297 % of control. The T/C is, setting by setting: (endpoint: median survival time, dose: 18.0 mg/kg/injection, schedule: Q## X001 (ip), vehicle: saline + alcohol) 188 % of control; (endpoint: median survival time, dose: 30.0 mg/kg/injection, schedule: Q## X001 (ip), vehicle: saline + alcohol) 241 % of control; (endpoint: median survival time, dose: 48.0 mg/kg/injection, schedule: Q## X001 (ip), vehicle: saline + alcohol) 297 % of control.

For the compound `O=NN(CCCl)C(=O)NC1CCC(NC(=O)N(CCCl)N=O)CC1` (stereo not drawn), the T/C is, setting by setting: (endpoint: mean survival time, dose: 23.0 mg/kg/injection, schedule: Q01DX001 (ip), vehicle: other) 157 % of control and 193 % of control; (endpoint: mean survival time, dose: 38.0 mg/kg/injection, schedule: Q01DX001 (oral), vehicle: other) 124 % of control; (endpoint: mean survival time, dose: 44.0 mg/kg/injection, schedule: Q01DX001 (ip), vehicle: saline with Tween-80) 169 % of control; under setting [2], 450 % of control and 218 % of control; (endpoint: mean survival time, dose: 67.0 mg/kg/injection, schedule: Q01DX001 (ip), vehicle: saline with Tween-80) 178 % of control and 169 % of control; (endpoint: mean survival time, dose: 84.0 mg/kg/injection, schedule: Q01DX001 (oral), vehicle: other) 150 % of control and 165 % of control. Further, the T/C runs as follows: (endpoint: mean survival time, dose: 96.0 mg/kg/injection, schedule: Q01DX001 (ip), vehicle: other) 375 % of control and 594 % of control; (endpoint: mean survival time, dose: 100.0 mg/kg/injection, schedule: Q01DX001 (ip), vehicle: saline with Tween-80) 246 % of control and 238 % of control; (endpoint: mean survival time, dose: 150.0 mg/kg/injection, schedule: Q01DX001 (ip), vehicle: saline with Tween-80) 255 % of control and 263 % of control; (endpoint: mean survival time, dose: 171.0 mg/kg/injection, schedule: Q01DX001 (oral), vehicle: other) 177 % of control and 214 % of control; (endpoint: mean survival time, dose: 191.0 mg/kg/injection, schedule: Q01DX001 (ip), vehicle: other) 475 % of control and 531 % of control; (endpoint: mean survival time, dose: 225.0 mg/kg/injection, schedule: Q01DX001 (ip), vehicle: saline with Tween-80) 438 % of control and 328 % of control. Further, the T/C runs as follows: (endpoint: mean survival time, dose: 319.0 mg/kg/injection, schedule: Q01DX001 (oral), vehicle: other) 453 % of control and 274 % of control; (endpoint: mean survival time, dose: 337.0 mg/kg/injection, schedule: Q01DX001 (ip), vehicle: saline with Tween-80) 507 % of control; (endpoint: mean survival time, dose: 383.0 mg/kg/injection, schedule: Q01DX001 (ip), vehicle: other) 340 % of control and 381 % of control; (endpoint: mean survival time, dose: 638.0 mg/kg/injection, schedule: Q01DX001 (oral), vehicle: other) 478 % of control and 554 % of control.
